# According to patent US20190192699A1, “NUCLEAR IMAGING AND RADIOTHERAPEUTICS AGENTS TARGETING CARBONIC ANHYDRASE IX AND USES THEREOF” (THE JOHNS HOPKINS UNIVERSITY, priority 2016, published 2019):
# “And” between values parts separate entries of the source, which are not always exact repeats. Equal entries are not always repeated. “Also recorded” adds a separate entry of the source.
# Assays:
# [1] = tested on: SK-RC-52 xenografts; assay: Biodistribution of [Al18F]XYIMSR-04; format: in vivo, mice; conditions: 1 h post-injection
# Experimental: (§1) Cell Lines and Mouse Models. Animal experiments were performed in accordance with protocols approved by the Johns Hopkins Animal Care and Use Committee (ACUC). Six-week-old female NOD/SCID mice were purchased from the Animal Resource Core of the Sidney Kimmel Comprehensive Cancer Center of Johns Hopkins and were subcutaneously injected in the lower left flank or upper right flank with 1×10^6 SK-RC-52 cells in RPMI 1640 GlutaMAX™ media (Life Technologies, Frederick, Md.) supplemented with 1% fetal bovine serum (FBS). Mice were monitored for tumor size and used for SPECT/CT imaging when the size of the tumor reached 100 mm^3.
# Biodistribution of [Al^18F]XYIMSR-04. Mice bearing SK-RC-52 xenografts within the lower left flank were injected intravenously with 740 kBq (20 μCi) of [Al^18F]XYIMSR-04 in 200 μL of PBS. At specific 1 hour time point mentioned in the paper, mice (n=5) were sacrificed by cervical dislocation and the blood was immediately collected by cardiac puncture. Heart, lungs, pancreas, spleen, fat, brain, muscle, small intestines, liver, bone, stomach, kidney, urinary bladder, and tumor were collected. Each organ was weighed and the tissue radioactivity was measured with an automated gamma counter (1282 Compugamma CS, Pharmacia/LKBNuclear, Inc., Mt. Waverly, Vic. Australia). The percentage of injected dose per gram of tissue (% ID/g) was calculated by comparison with samples of a standard dilution of the initial dose. All measurements were corrected for radioactive decay. Data were expressed as mean±standard deviation (SD). Prism software (GraphPAD, San Diego, Calif.) was used to determine statistical significance. Statistical significance was calculated using a paired t test. P-values […] were considered significant.
# [2] = tested on: CAIX-expressing SK-RC-52 tumors; assay: PET/CT imaging of [Al18F]XYIMSR-04; format: in vivo, mice; conditions: 7.4 MBq (200 μCi) via tail vein
# Experimental: as §1
# PET/CT imaging of [Al^18F]XYIMSR-04. Mice harboring subcutaneous SK-RC-52 tumors with the lower left flank were injected with 7.4 MBq (200 μCi) of [Al^18F]XYIMSR-04 in 250 μL of PBS (pH=7.0) intravenously (tail vein). Anesthesia was then induced with 3% isofluorane and maintained at 2% isoflurane. Physiologic temperature was maintained with an external light source while the mouse was on the gantry. […] Whole body 2-bed PET scan was performed using ARGUS small-animal PET/CT scanner (Sedecal, Madrid, Spain) at 250-700 keV energy window. PET acquisition times were: 5 min/bed (1 h) post-injection of [Al^18F]XYIMSR-04. PET images were co-registered with the corresponding 360-slice CT images. […]
smiles,measurement,setting,value
CC(CCC(=O)N[C@@H](CC(=O)N[C@@H](CC(=O)N[C@@H](CCCCn1cc(CCCC(=O)Nc2nnc(S(N)(=O)=O)s2)nn1)C(=O)NCCOCCOCCNC(=O)CN1CCN2CCN(CC1)CC(=O)[O][Al]([18F])[O]C(=O)C2)C(=O)O)C(=O)O)(c1ccc(O)cc1)c1ccc(O)cc1 [[Al^18F]XYIMSR-04],Biodistribution: Bladder,[1],20.12 ± 12.51 % ID/g
same,Biodistribution: Blood,[1],0.65 ± 0.11 % ID/g
same,Biodistribution: Bone,[1],1.91 ± 1.39 % ID/g
same,Biodistribution: Brain,[1],0.66 ± 0.04 % ID/g
same,Biodistribution: Fat,[1],1.54 ± 0.25 % ID/g
same,Biodistribution: Heart,[1],5.03 ± 0.51 % ID/g
same,Biodistribution: Kidney (kid),[1],50.84 ± 2.65 % ID/g
same,Biodistribution: Liver,[1],5.55 ± 0.91 % ID/g
same,Biodistribution: Lung,[1],34.07 ± 5.85 % ID/g
same,Biodistribution: Muscle (mm),[1],1.74 ± 0.58 % ID/g
same,Biodistribution: Pancreas,[1],3.47 ± 0.16 % ID/g
same,Biodistribution: Sm. intestine,[1],9.59 ± 1.04 % ID/g
same,Biodistribution: Spleen,[1],0.54 ± 0.18 % ID/g
same,Biodistribution: Stomach,[1],21.62 ± 1.85 % ID/g
same,Biodistribution: Tumor,[1],14.40 % ID/g and 14.40 ± 2.18 % ID/g
same,Tumor/Blood ratio,[1],22.1 and 22.1 ± 1.5
same,Tumor/kid (kidney) ratio,[1],0.28 and 0.28 ± 0.03
same,Tumor/mm (muscle) ratio,[1],9.74 and 9.74 ± 2.9
same,PET/CT tumor imaging finding,[2],radiotracer uptake in tumor at 1 h post-injection; also recorded: tumor visualization by 1 h post-injection
